Experimental data: US20210017607A1, “Methods of Predicting Responsiveness to Cancer Therapies” (The University of Chicago, priority 2019, published 2021)
“Also recorded” adds a separate entry of the source.

What was measured:
Myc-CAP-PTEN^−/− cells = experiment: Myc-CAP-PTEN−/− cells in vitro (western blotting, cytokine array); assay type: cell-based, mouse; details: 1 μM, 24 hours
Method: FIGS. 35A-35D. […] (35A) Myc-CAP-PTEN^−/− cells were treated with copanlisib […] (IC90 concentration) in vitro for 24 hours, and protein extracts were harvested for western blotting analysis with the indicated antibodies to analyze PI3K activation. (35B) Supernatants from (35A) were harvested for cytokine array profiling. n=3 independent in vitro experiments. (35C) Mice bearing Myc-CAP-PTEN^−/− established syngeneic tumors (200 mm^3) were treated with copanlisib (14 mg/kg, every other day, until tumors reached 2000 mm^3). Tumor volumes were monitored daily and graphed. (35D) At the end of treatment, tumors were analyzed by flow cytometry for tumor infiltrating immune cell subsets. n=5 mice per group.
FIGS. 49A and 49B. PTEN-deficient cancer cells have diminished STING expression that can be restored by […] and pan-PI3K inhibitors. (49A) Isogenic MC38, Myc-CAP, ID8, and TRAMP cells (−/+ PTEN) were analyzed for STING mRNA and protein expression by qRT-PCR and western blotting, respectively. (49B) Myc-CAP-PTEN^−/− cells were treated with GSK′771 (PI3Kβ-selective inhibitor, 1 μM) or BKM120 (pan-PI3K inhibitor, 1 μM) for 24 hours, and proteins were analyzed for STING expression and PI3K activation by western blotting.
Cancer Cell Lines and in vitro drug treatments. Transgenic c-myc^hi prostate tumor derived cell line, Myc-CAP and TRAMPC1, ovarian cancer cell line ID8 and murine colon adenocarcinoma line MC38 were obtained from the American Type Culture Collection (ATCC) and passaged in either 1×RPMI/1×DMEM (with phenol) or 1×DMEM (without phenol red) containing 10% fetal bovine serum, 1% penicillin-streptomycin, 2% L-glutamine and 1×ITS. ID8^pten−/−p53−/−cells were a kind gift from Dr. Ian McNeish (Imperial College, London). For generation of STING over expressing cell lines −Myc-CAP^pten+/+ and ID8^pten−/− cells were transfected with commercial available plasmid (DC-Mm22462-SH02, Genecoepia™), sorted and expanded as per protocol. […]

[1] = IC90 concentrations stated for in vitro/ex vivo drug treatments; details: FIG. 50, Myc-CAP-PTEN^−/− tumor suspensions; read-out: IC90 concentration
[2] = tested on: single cell suspensions derived from Myc-CAP (STING^lo) tumors; experiment: Ex vivo reconstitution assay, IFNβ ELISA; assay type: cell-based, mouse; details: ex vivo
Method: FIGS. 15A-15E. Differential STING pathway activation within B6-Myc (STING^hi) cell lines and BMDMs relative to Myc-CAP (STING^lo) cells. (15A, 15B) The indicated cancer cell lines and BMDMs were treated with DMXAA (mouse STING agonist) for 1 and 24 hours, respectively, and protein extracts were interrogated for cGAS/STING pathway activation with the indicated antibodies by Western blotting. Supernatants were collected from for IFNβ1 ELISA following 36 hours of treatment with DMXAA (15C, 15D). (15E) Syngeneic Myc-CAP (STING^lo) tumors were processed into single cell suspensions and used for phycoerythrin-based sorting of CD45+ cellular fractions. Equal numbers of cells from these fractions were stimulated with DMXAA. Supernatants were collected at 36 hrs for detection of IFNB1 by ELISA; n=3 independent experiments; Significance/p-values were calculated by one-way Anova (for 15C & 15E) or paired t-test (for 15D); TAM=tumor associated macrophage; s.e.=short exposure; l.e.=long exposure.
FIGS. 29A-29M. PARPi alone induces DNA DSBs, but not apoptosis even in combination with PI3Ki in Myc-CAP (STING^lo) cancer cells; PARPi/PI3Ki combination induces intracellular DNA DSBs and proportionate release of MV surface-associated DNA DSBs from B6-Myc (STINGhi) cancer cells without affecting cellular viability; PARPi/PI3K treatment activates tumor-cell extrinsic cGAS/STING pathway within TAMs in vivo via MV surface-associated DNA DSBs released from tumor cells. Myc-CAP cancer cells were treated with the indicated drugs singly or in combination for 36 hours. (29A) Cells were stained with anti-mouse specific p-γH2AX antibody and a fluorescently labeled secondary antibody for determination of DNA DSBs, which were quantified by confocal microscopy. (29B) Protein extracts from cells in 29A were analyzed for the indicated pharmacodynamic biomarkers by western blotting; (29C) Annexin V-PI staining was done to assess frequency of live cells (Annexin V^− PI^−) following drug treatment. (29D) Ultracentrifugation was utilized to purify microvesicles (MVs) from supernatants in treatment groups in (29A) and associated DNA DSBs was quantified by Nanodrop®. Independent experiments n=2. (29E) Ultracentrifugation was utilized to purify MVs from supernatants in indicated treatment groups in FIG. 17A, and associated DNA DSBs were quantified by Nanodrop®; n=2 independent experiments. (29F) Syngeneic mice were engrafted with Myc-CAP (STING^lo) cells, and tumors were harvested when the tumor volume reached 400 mm^3. Single cell suspensions of the tumors were treated with the indicated drug(s), in the presence or absence of GW4869 (MV biogenesis inhibitor). (29G) Bone marrow derived macrophage (BMDMs) were co-cultured for 30 hours with supernatants (−/+ exogenous 50 units of DNase I pre-treatment for 30 minutes) from Myc-CAP cells that were treated with the indicated drug(s) for 36 hours. (29H) cGAMP (10 μg/mL) was pre-incubated with 10 units of DNAse I or mock control for 30 minutes and then added to BMDMs for 30 hours. (29I-29L) STING^+/+/STING^−/− BMDMs were co-cultured for 36 hours with supernatants from Myc-CAP and B6-Myc cancer cells that were treated with the indicated drug(s) for 36 hours. Supernatants were collected from 29F-29L at the end of treatment and analyzed for IFNβ1 by ELISA. […] Tumor volume was recorded daily for duration of experiment. […] Significance/p-values were calculated by one-way ANOVA. […]

[3] = tested on: Myc-CAP (STING^lo) tumors; experiment: Myc-CAP syngeneic tumor growth; assay type: in vivo, mouse; details: for effect of concomitant agent on anti-tumor response elicited by degarelix/rucaparib/buparlisib (ADT/PARPi/PI3Ki): syngeneic mice
Method: FIGS. 25A and 25B. […] (25A-25B) Myc-CAP (STING^lo) tumor-bearing syngeneic mice were treated with the indicated drug(s) until untreated tumors reached approx. 2500 mm^3. Tumor volume curves for duration of treatment are shown.
FIGS. 26A-26D. […] Immunodeficient athymic nude (26A) and NOD-SCID (26B) mice were engrafted with Myc-CAP (STING^lo) tumors and treated with the indicated drug(s) until untreated tumors reached approx. 2000 mm^3. Tumor volume curves for duration of treatment are shown. For 26A-26B, n=3-4 mice per group. (26C-26D) Single-cell suspensions were generated from harvested tumors and analyzed by flow cytometry for the indicated immune cell populations and their activation states. Data are represented relative to CD45+ immune cells. For 26C-26D, n=3-5 animals per treatment group from 2 independent experiments. Significance/p-values were calculated by […].
FIGS. 29A-29M. […] Myc-CAP cancer cells were treated with the indicated drugs singly or in combination for 36 hours. (29A) Cells were stained with anti-mouse specific p-γH2AX antibody and a fluorescently labeled secondary antibody for determination of DNA DSBs, which were quantified by confocal microscopy. (29B) Protein extracts from cells in 29A were analyzed for the indicated pharmacodynamic biomarkers by western blotting; (29C) Annexin V-PI staining was done to assess frequency of live cells (Annexin V^− PI^−) following drug treatment. (29D) Ultracentrifugation was utilized to purify microvesicles (MVs) from supernatants in treatment groups in (29A) and associated DNA DSBs was quantified by Nanodrop®. Independent experiments n=2. (29E) Ultracentrifugation was utilized to purify MVs from supernatants in indicated treatment groups in FIG. 17A, and associated DNA DSBs were quantified by Nanodrop®; n=2 independent experiments. (29F) Syngeneic mice were engrafted with Myc-CAP (STING^lo) cells, and tumors were harvested when the tumor volume reached 400 mm^3. Single cell suspensions of the tumors were treated with the indicated drug(s), in the presence or absence of GW4869 (MV biogenesis inhibitor). (29G) Bone marrow derived macrophage (BMDMs) were co-cultured for 30 hours with supernatants (−/+ exogenous 50 units of DNase I pre-treatment for 30 minutes) from Myc-CAP cells that were treated with the indicated drug(s) for 36 hours. (29H) cGAMP (10 μg/mL) was pre-incubated with 10 units of DNAse I or mock control for 30 minutes and then added to BMDMs for 30 hours. (29I-29L) STING^+/+/STING^−/− BMDMs were co-cultured for 36 hours with supernatants from Myc-CAP and B6-Myc cancer cells that were treated with the indicated drug(s) for 36 hours. Supernatants were collected from 29F-29L at the end of treatment and analyzed for IFNβ1 by ELISA. (29M) Myc-CAP (STING^lo) tumor-bearing mice were treated with the indicated drug(s) until tumors first reached approx. 2500 mm^3. For the degerelix/rucaparib/buparlisib combination, additional cohorts of mice underwent concomitant treatment with STING antagonist H-151 or GW4869. Tumor volume was recorded daily for duration of experiment. For in vitro experiments, n=2 independent experiments and for in vivo experiments n=3-4 animals /group.

BMDMs = experiment: BMDM co-culture with supernatants from drug-treated cancer cells; assay type: cell-based, mouse; details: cGAMP 10 μg/mL, 30 hours
Source text: FIGS. 29A-29M. PARPi alone induces DNA DSBs, but not apoptosis even in combination with PI3Ki in Myc-CAP (STING^lo) cancer cells; PARPi/PI3Ki combination induces intracellular DNA DSBs and proportionate release of MV surface-associated DNA DSBs from B6-Myc (STINGhi) cancer cells without affecting cellular viability; PARPi/PI3K treatment activates tumor-cell extrinsic cGAS/STING pathway within TAMs in vivo via MV surface-associated DNA DSBs released from tumor cells. Myc-CAP cancer cells were treated with the indicated drugs singly or in combination for 36 hours. (29A) Cells were stained with anti-mouse specific p-γH2AX antibody and a fluorescently labeled secondary antibody for determination of DNA DSBs, which were quantified by confocal microscopy. (29B) Protein extracts from cells in 29A were analyzed for the indicated pharmacodynamic biomarkers by western blotting; (29C) Annexin V-PI staining was done to assess frequency of live cells (Annexin V^− PI^−) following drug treatment. (29D) Ultracentrifugation was utilized to purify microvesicles (MVs) from supernatants in treatment groups in (29A) and associated DNA DSBs was quantified by Nanodrop®. Independent experiments n=2. (29E) Ultracentrifugation was utilized to purify MVs from supernatants in indicated treatment groups in FIG. 17A, and associated DNA DSBs were quantified by Nanodrop®; n=2 independent experiments. […]

SMILES	IC90 [1] [nM]	effect of concomitant agent on anti-tumor response elicited by degarelix/rucaparib/buparlisib (ADT/PARPi/PI3Ki) [3]	further results
Cc1c(Cn2c(C)nc3c(C(=O)O)cc(N4CCOCC4)cc32)cccc1C(F)(F)F [GSK771]	500	–	STING expression (western blotting) (Myc-CAP-PTEN^−/− cells): restored
O=C(/C=C/c1ccc(/C=C/C(=O)Nc2ccc(C3=NCCN3)cc2)cc1)Nc1ccc(C2=NCCN2)cc1 [GW4869]	–	abrogated the anti-tumor response; also recorded: significant abrogation	effect of concomitant agent on IFNβ / Type I IFN production following rucaparib/buparlisib (PARPi/PI3Ki) [2]: abolished the IFNβ production; also recorded: Significant down-regulation of Type I IFN production
CCc1ccc(NC(=O)Nc2c[nH]c3ccccc23)cc1 [H-151]	–	abrogated the anti-tumor response	effect of concomitant agent on anti-tumor response elicited by PARPi/PI3Ki ([3]; c-myc driven murine PC models, immunocompetent mice): abrogated
C[C@H](NC(=O)c1c(N)nn2cccnc12)c1cc2cccc(C#Cc3cnn(C)c3)c2c(=O)n1-c1ccccc1 [IPI549]	500	–	–
Nc1nc2c(ncn2[C@@H]2O[C@@H]3COP(=O)(O)O[C@H]4[C@@H](O)[C@H](n5cnc6c(N)ncnc65)O[C@@H]4COP(=O)(O)O[C@@H]2[C@@H]3O)c(=O)[nH]1 [cGAMP, cyclic guanosine monophosphate-adenosine monophosphate]	–	–	Type I IFN production within BMDMs after DNase I pre-treatment of the agent (BMDMs): did not abrogate the Type I IFN production
